Data on 1 compound can be found in patent US12516024B2, “KDM4 inhibitors” (ALBERT-LUDWIGS-UNIVERSITY FREIBURG, priority 2017, dated 2026).

Data set [1] is described as follows: Pharmacokinetic study iv/po. To be noted: dose iv/po 5/10 mg/kg. It is filed as in vivo.
The next data set concerns the target KDM5B (Homo sapiens, UniProt Q9UGL1). In words: KDM demethylase inhibition (IC50), KDM5B. The class given is biochemical. The conditions noted are these: in words. The protocol:
The expression levels in the BCSC cells of the various KDM4 family members were evaluated by western blot analysis. Metzger et al., LSD1 demethylates repressive histone marks to promote and rogen receptor-dependent transcription, 437 Nature 436 (2005). […] These observations indicate that KDM4 are therapeutic targets for treatment of BCSC populations. Accordingly, a screen to characterize KDM4(i) was performed to explore compounds suitable for treating cancers, in particular cancers such as therapy resistant clonal BCSC-originating tumors.

Molecules are shown by their SMILES.

Chain of KDM5B (Q9UGL1 whole entry): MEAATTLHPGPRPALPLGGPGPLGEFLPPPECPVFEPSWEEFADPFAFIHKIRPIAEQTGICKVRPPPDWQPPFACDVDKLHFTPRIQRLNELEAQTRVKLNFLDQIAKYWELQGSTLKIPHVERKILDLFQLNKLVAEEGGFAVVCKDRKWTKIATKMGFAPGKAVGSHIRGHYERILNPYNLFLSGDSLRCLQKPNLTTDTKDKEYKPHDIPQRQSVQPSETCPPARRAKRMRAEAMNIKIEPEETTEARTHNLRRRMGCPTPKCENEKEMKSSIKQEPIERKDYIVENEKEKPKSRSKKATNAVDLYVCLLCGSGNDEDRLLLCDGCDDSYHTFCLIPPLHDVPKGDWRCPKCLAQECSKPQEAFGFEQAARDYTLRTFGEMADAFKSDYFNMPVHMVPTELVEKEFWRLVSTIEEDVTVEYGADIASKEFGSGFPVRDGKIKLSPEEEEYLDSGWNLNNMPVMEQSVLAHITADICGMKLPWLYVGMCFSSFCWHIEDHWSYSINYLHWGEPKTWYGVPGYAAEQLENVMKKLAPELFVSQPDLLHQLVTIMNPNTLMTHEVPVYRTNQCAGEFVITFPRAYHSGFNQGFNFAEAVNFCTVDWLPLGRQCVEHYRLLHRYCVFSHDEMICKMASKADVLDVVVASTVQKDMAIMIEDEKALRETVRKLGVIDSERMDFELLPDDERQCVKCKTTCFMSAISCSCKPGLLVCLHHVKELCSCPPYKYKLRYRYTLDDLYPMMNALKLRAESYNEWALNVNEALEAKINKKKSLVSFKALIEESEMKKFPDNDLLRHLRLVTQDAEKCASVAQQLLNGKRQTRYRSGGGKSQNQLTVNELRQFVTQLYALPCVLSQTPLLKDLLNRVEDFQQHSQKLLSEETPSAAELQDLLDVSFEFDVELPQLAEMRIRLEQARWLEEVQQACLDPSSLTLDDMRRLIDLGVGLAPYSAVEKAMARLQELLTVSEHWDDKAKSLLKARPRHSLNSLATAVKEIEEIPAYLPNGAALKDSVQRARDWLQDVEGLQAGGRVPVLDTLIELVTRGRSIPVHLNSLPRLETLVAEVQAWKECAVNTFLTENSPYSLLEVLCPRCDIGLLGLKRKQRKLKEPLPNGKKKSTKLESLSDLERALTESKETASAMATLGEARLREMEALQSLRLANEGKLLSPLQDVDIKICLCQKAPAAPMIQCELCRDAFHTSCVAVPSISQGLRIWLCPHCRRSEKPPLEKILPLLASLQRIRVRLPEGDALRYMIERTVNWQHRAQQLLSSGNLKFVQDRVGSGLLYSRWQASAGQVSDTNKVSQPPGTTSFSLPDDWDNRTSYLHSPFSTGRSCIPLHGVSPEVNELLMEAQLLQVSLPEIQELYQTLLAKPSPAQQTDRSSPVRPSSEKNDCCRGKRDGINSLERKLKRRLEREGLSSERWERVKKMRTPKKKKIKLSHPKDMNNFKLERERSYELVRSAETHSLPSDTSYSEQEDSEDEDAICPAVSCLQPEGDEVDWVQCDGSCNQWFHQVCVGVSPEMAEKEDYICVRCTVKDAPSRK

Take `CN(c1ccccc1)c1ccc2c(c1)CCC[C@H]2CNc1cnccc1C(=O)O` [Compound I, 3-({[(1R)-6-[methyl(phenyl)amino]-1,2,3,4-tetrahydronaphthalen-1-yl]methyl}amino)pyridine-4-carboxylic acid]: the bioavailability in data set [1] (plasma, read-out: F % (bioavailability)) was 30.4%. Moreover, the “po ½” value in data set [1] (po) was found to be 2.57 h. At KDM5B, the “effect on the demethylase activity of KDM5B” value is “weak effect”.

As a reminder, the bioavailability is dose-corrected exposure relative to a reference, in per cent.
